The nature of data set [1]: Rat liver microsome stability (RLM) experiment. It is filed as in vitro ADME. The conditions noted are these: rat liver microsomal stability, Table 4; 0.5 mg protein/mL, NADPH, 37° C., 0-45 min. As to the method: Effect embodiment 3 Rat liver microsome stability (RLM) experiment
Rat liver microsomes (Xenotech, item No. R1000, lot No. 1310030), 100 mM potassium phosphate buffer solution (pH 7.4), 10 mM magnesium chloride.
Compound preparation: 5 μL of compound DMSO mother liquor (10 mM) was added to 495 μL of methanol to obtain an intermediate solution with a compound concentration of 100 μM. Then 50 μL of the intermediate solution was taken and dissolved in 450 μL of potassium phosphate buffer solution to obtain a test solution with a final concentration of 10 μM.
NADPH regeneration system (concentration of isocitrate dehydrogenase 1 unit/mL).
Liver microsomes (final concentration 0.5 mg protein/mL).
Reaction termination solution: cold acetonitrile containing 100 ng/mL Tolbutamide and 100 ng/mL Labetalol as an internal standard.
• (1) Preparation of buffer solution: • Buffer solution A: 1.0 L of 0.1 M potassium phosphate buffer solution containing 1.0 mM EDTA • Buffer solution B: 1.0 L of 0.1 M dipotassium phosphate buffer solution containing 1.0 mM EDTA • Buffer solution C: 0.1 M potassium phosphate buffer, 1.0 mM EDTA, pH 7.4, titrated with 700 mL of buffer solution B and buffer solution A, monitored by pH meter. • (2) Preparation of reference substance (ketanserin) and concentration of administration solution of the test substance:
[…]: […] 10 mM DMSO reference substance stock solution and test substance stock solution were added to 190 μL of ACN, respectively. 1.5 μM administration solution (containing 0.75 mg/mL liver microsomes): […] administration solution and 18.75 μL of 20 mg/mL liver microsomes were added to 479.75 μL of buffer C on a wet ice. • (3) NADPH was added to buffer solution C to obtain a NADPH stock solution (6 mM). • (4) 30 μL of 1.5 μM administration solution (containing 0.75 mg/mL of liver microsomes) was taken on the wet ice and added to the wells of the test plate at different time points (0-, 5-, 15-, 30-, 45-min), respectively. • (5) Firstly, 135 μL of ACN containing IS was added to the wells of a 0 min test plate, and then 15 μL of the NADPH stock solution (6 mM) was added. • (6) The test plate at other time points and the NADPH stock solution were pre-heated in a 37° C. water bath for 5 minutes. • (7) 15 μL of the NADPH stock solution (6 mM) was taken and added to a pre-incubated test plate, and the reaction was started and timed. • (8) At 5 min, 15 min, 30 min and 45 min, 135 μL of CAN containing IS was added to the corresponding test plate respectively, and the test was completed. • (9) Test plates were shaken with a shaker (IKA, MTS 2/4) for 10 min (600 rpm/min) and then centrifuged for 15 min (Thermo Multifuge×3R, 5594 g). • (10) 50 μL of supernatant from each well was added to a 96-well sample plate containing 50 μL of ultrapure water (Millipore, ZMQS50F01), and the samples were analyzed by LC/MS.
A general note: Liver microsomes are a subcellular fraction often used to study metabolism.

Data set [2] is described as follows: Pharmacokinetic experiment on rats: brain entry ratio (brain tissue/plasma concentration ratio). It is filed as in vivo. The conditions noted are these: rat, male SD rats, po 10 mg/kg, Table 7. The protocol:
The drug concentration ratio of plasma and brain tissue in the pharmacokinetic experiment on rats was used to evaluate the entry of compounds into brain. All rats fasted overnight before administration; the test compounds were dissolved and administered orally (po) to male SD rats, with 3 rats in each group. After administration of the test compounds, blood was collected by jugular vein puncture at 0.5 hours with about 0.25 mL per sample. The whole brain was taken at the same time. The plasma and brain tissue drug concentration were determined by LC-MS/MS method, and the pharmacokinetic parameters were calculated by Phoenix WinNonlin7.0. The dosage was 10 mg/kg, and the vehicle was 5% CMC-Na aqueous solution.

The structures appear in SMILES notation.

The term Kp denotes the ratio of the level in a tissue or fluid to that in plasma or blood. In data set [1], `COCCOCc1ccc(COc2nn3c(-c4cc(C)on4)nnc3cc2OC)nn1` [Embodiment 166] returned an RLM of 0 µL/min/mg. Besides, the Kp at 0.5 h in data set [2] was determined as 0.01.

In turn, `COCc1ccc(COc2nn3c(-c4cc(C)on4)nnc3cc2OC)nn1` [Embodiment 151] had an RLM in data set [1] of 1 µL/min/mg. Besides, the Kp at 0.5 h in data set [2] came out at 0.02.

In data set [1], `COc1cc2nnc(-c3cc(C)on3)n2nc1OCc1ccc2c(n1)CN(C1CCOCC1)C2` [Embodiment 253] registered an RLM of 10 µL/min/mg. The Kp at 0.5 h in data set [2] was found to be 0.0133.

With `COCc1cn2nc(COc3nn4c(-c5cc(C)on5)nnc4cc3OC)ccc2n1` [Embodiment 213], the RLM in data set [1] is 10 µL/min/mg. In addition, the Kp at 0.5 h in data set [2] stood at 0.0179.

In data set [1], `COc1cc2nnc(-c3cc(C)on3)n2nc1OCc1ccc2c(n1)CCN(C1COC1)C2` [Embodiment 84, 3-(7-Methoxy-6-((6-(oxetan-3-yl)-5,6,7,8-tetrahydro-1,6-naphthyridin-2-yl)methoxy)-[1,2,4]triazolo[4,3-b]pyridazin-3-yl)-5-methylisoxazole] came in with an RLM of 0 µL/min/mg. Further, the Kp at 0.5 h in data set [2] was 0.0045.

The molecule `COc1cc2nnc(-c3cc(C)on3)n2nc1OCc1ccc2c(n1)CN(C)C2` [Embodiment 160, 3-(7-Methoxy-6-((6-methyl-6,7-dihydro-5H-pyrrolo[3,4-b]pyridin-2-yl)methoxy)-[1,2,4]triazolo[4,3-b]pyridazin-3-yl)-5-methylisoxazole] showed an RLM in data set [1] of 6 µL/min/mg. For the same molecule, the Kp at 0.5 h in data set [2] was 0.0441.

Regarding `COc1cc2nnc(-c3cc(C)on3)n2nc1OCc1ccc2c(n1)CCN(C(CO)CO)C2` [Embodiment 185], in data set [1], the RLM was 9 µL/min/mg. Further, in data set [2], the Kp at 0.5 h is 0.

Take `COc1cc2nnc(-c3cc(C)on3)n2nc1OCc1ccc(C2(F)CN(C3COC3)C2)cn1` [Embodiment 128]: the RLM in data set [1] turned out to be 6 µL/min/mg. For the same molecule, in data set [2], the Kp at 0.5 h worked out at 0.032.

For `COc1cc2nnc(-c3cc(C)on3)n2nc1OCc1ccc(OC2CCOC2)nn1` (stereo not shown) [Embodiment 154], the RLM in data set [1] came out at 1 µL/min/mg. Moreover, the Kp at 0.5 h in data set [2] is 0.0257.

The molecule `COc1cc2nnc(-c3cc(C)on3)n2nc1OCc1ccc(OC2COC2)nn1` [Embodiment 153] registered an RLM in data set [1] of 5 µL/min/mg. The Kp at 0.5 h in data set [2] is 0.02.

Turning to `COc1cc2nnc(-c3cc(C)on3)n2nc1OCc1ccc2c(n1)CCN(Cc1cc(C)on1)C2` [Embodiment 187], the RLM in data set [1] is 15 µL/min/mg. Moreover, the Kp at 0.5 h in data set [2] was 0.0293.

On to `COc1cc2nnc(-c3cc(C)on3)n2nc1OCc1ccc(OC2CCOCC2)nn1` [Embodiment 152], for which, in data set [1], the RLM was 23 µL/min/mg. The Kp at 0.5 h in data set [2] was 0.0243.

With `COCCCOc1ccc(COc2nn3c(-c4noc(C)n4)nnc3cc2OC)nn1` [Embodiment 129], the RLM in data set [1] came to 14 µL/min/mg. In addition, the Kp at 0.5 h in data set [2] came out at 0.047.

`COc1cc2nnc(-c3cc(C)on3)n2nc1OCc1ccc2c(n1)CCN(C1CCOCC1)C2` [Embodiment 186] returned an RLM in data set [1] of 22 µL/min/mg. The Kp at 0.5 h in data set [2] was 0.0442.

The values above are taken from patent US12637468B2, “Substituted [1,2,4]triazolo[4,3-b]pyridazines as GABAA receptor modulators” (SHANGHAI SIMR BIOTECHNOLOGY CO., LTD., priority 2019, dated 2026).
